Measurements: patent US8658791B2, “2-substituted-6-amino-5-alkyl, alkenyl or alkynyl-4-pyrimidinecarboxylic acids and 6-substituted-4-amino-3-alkyl, alkenyl or alkynyl picolinic acids and their use as herbicides” (Dow AgroSciences, LLC, priority 2007, dated 2014)
Counter-ions that a name gives are not always drawn.

Tests used:
[1] = system: lambsquarter (Chenopodium album); experiment: General postemergence herbicidal activity, CHEAL; type: in vivo; settings: postemergence spray, visual score after 14 days, 0 = no injury, 100 = complete kill; for pest or weed control at 280 g/ha / pest or weed control at 140 g/ha: Chenopodium album, post-emergence, 336 h, read-out: Post-emergent Weed Control CHEAL; for pest or weed control at 280 g/ha: 280 g ai/ha; for pest or weed control at 140 g/ha: 140 g ai/ha
Procedure: (§1) Seeds or nutlets of the desired test plant species were planted in Sun Gro MetroMix® 306 planting mixture, which typically has a pH of 6.0 to 6.8 and an organic matter content of about 30 percent, in plastic pots with a surface area of 103 square centimeters. When required to ensure good germination and healthy plants, a fungicide treatment and/or other chemical or physical treatment was applied. The plants were grown for 7-21 days in a greenhouse with an approximate 15 hour photoperiod which was maintained at about 23-29° C. during the day and 22-28° C. during the night. Nutrients and water were added on a regular basis and supplemental lighting was provided with overhead metal halide 1000-Watt lamps as necessary. The plants were employed for testing when they reached the first or second true leaf stage.
(§2) A weighed amount, determined by the highest rate to be tested, of each test compound was placed in a 25 mL glass vial and was dissolved in 4 mL of a 97:3 v/v (volume/volume) mixture of acetone and dimethyl sulfoxide (DMSO) to obtain concentrated stock solutions. […] The concentrated stock solutions obtained were diluted with 20 mL of an aqueous mixture containing acetone, water, isopropyl alcohol, DMSO, Atplus 411F crop oil concentrate, and Triton® X-155 surfactant in a 48.5:39:10:1.5:1.0:0.02 v/v ratio to obtain spray solutions containing the highest application rates. Additional application rates were obtained by serial dilution of 12 mL of the high rate solution into a solution containing 2 mL of 97:3 v/v (volume/volume) mixture of acetone and dimethyl sulfoxide (DMSO) and 10 mL of an aqueous mixture containing acetone, water, isopropyl alcohol, DMSO, Atplus 411F crop oil concentrate, and Triton X-155 surfactant in a 48.5:39:10:1.5:1.0:0.02 v/v ratio to obtain 1/2X, 1/4X, 1/8X and 1/16X rates of the high rate. Compound requirements are based upon a 12 mL application volume at a rate of 187 L/ha. Formulated compounds were applied to the plant material with an overhead Mandel track sprayer equipped with a 8002E nozzles calibrated to deliver 187 L/ha over an application area of 0.503 square meters at a spray height of 18 inches (43 cm) above the average plant canopy height. Control plants were sprayed in the same manner with the solvent blank.
(§3) The treated plants and control plants were placed in a greenhouse as described above and watered by sub-irrigation to prevent wash-off of the test compounds. After 14 days, the condition of the test plants as compared with that of the untreated plants was determined visually and scored on a scale of 0 to 100 percent where 0 corresponds to no injury and 100 corresponds to complete kill.

[2] = system: velvetleaf (Abutilon theophrasti); experiment: General postemergence herbicidal activity, ABUTH; type: in vivo; settings: postemergence spray, visual score after 14 days, 0 = no injury, 100 = complete kill; for pest or weed control at 280 g/ha / pest or weed control at 140 g/ha: Abutilon theophrasti, post-emergence, 336 h, read-out: Post-emergent Weed Control ABUTH; for pest or weed control at 280 g/ha: 280 g ai/ha; for pest or weed control at 140 g/ha: 140 g ai/ha
Procedure: as §1, §2, §3

[3] = system: wild poinsettia (Euphorbia heterophylla); experiment: General postemergence herbicidal activity, EPHHL; type: in vivo; settings: postemergence spray, visual score after 14 days, 0 = no injury, 100 = complete kill; for pest or weed control at 280 g/ha / pest or weed control at 140 g/ha: Euphorbia heterophylla, post-emergence, 336 h, read-out: Post-emergent Weed Control EPHHL; for pest or weed control at 280 g/ha: 280 g ai/ha; for pest or weed control at 140 g/ha: 140 g ai/ha
Procedure: as §1, §2, §3

[4] = system: barnyardgrass (Echinochloa crus-galli); experiment: General postemergence herbicidal activity, ECHCG; type: in vivo; settings: postemergence spray, visual score after 14 days, 0 = no injury, 100 = complete kill; for pest or weed control at 280 g/ha / pest or weed control at 140 g/ha: Echinochloa crus-galli, post-emergence, 336 h, read-out: Post-emergent Weed Control ECHCG; for pest or weed control at 280 g/ha: 280 g ai/ha; for pest or weed control at 140 g/ha: 140 g ai/ha
Procedure: as §1, §2, §3

rice (Oryza sativa) = experiment: General postemergence herbicidal activity, ORYSA; type: in vivo; settings: postemergence spray, visual score after 14 days, 0 = no injury, 100 = complete kill; for plant injury at 280 g/ha / plant injury at 140 g/ha: Oryza sativa, post-emergence, 336 h, read-out: Post-emergent Weed Control ORYSA; for plant injury at 280 g/ha: 280 g ai/ha; for plant injury at 140 g/ha: 140 g ai/ha
Procedure: as §1, §2, §3

Compound	pest or weed control at 280 g/ha [1]	pest or weed control at 280 g/ha [2]	pest or weed control at 280 g/ha [3]	pest or weed control at 280 g/ha [4]	plant injury at 280 g/ha (rice (Oryza sativa))	also measured
C=Cc1c(N)nc(-c2ccc(Cl)cc2)nc1C(=O)OC [Compound 6, 6-Amino-2-(4-chlorophenyl)-5-vinylpyrimidine-4-carboxylic acid methyl ester]	90%	100%	70%	80%	0%	melting point: 164 to 167 °C
C=Cc1c(N)nc(-c2ccc(Cl)c(OC)c2)nc1C(=O)OC [Compound 7, 6-Amino-2-(4-chloro-3-methoxyphenyl)-5-vinylpyrimidine-4-carboxylic acid methyl ester]	95%	60%	70%	0%	0%	melting point: 144 to 148 °C
C=Cc1c(N)nc(-c2cc(OC)c(Cl)cc2F)nc1C(=O)OC [Compound 8, 6-Amino-2-(4-chloro-2-fluoro-5-methoxyphenyl)-5-vinylpyrimidine-4-carboxylic acid methyl ester]	100%	100%	50%	100%	0%	melting point: 161 to 164 °C
COC(=O)c1nc(-c2ccc(Cl)c(OC)c2F)nc(N)c1C(F)F [Compound 35, 6-Amino-2-(4-chloro-2-fluoro-3-methoxy-phenyl)-5-difluoromethylpyrimidine-4-carboxylic acid methyl ester]	85%	75%	90%	0%	0%	–
COC(=O)c1nc(-c2ccc(Cl)c(OC)c2F)cc(N)c1C(F)F [Compound 36, 4-Amino-6-(4-chloro-2-fluoro-3-methoxyphenyl)-3-difluoromethylpyridine-2-carboxylic acid methyl ester]	95%	100%	95%	95%	0%	–
COC(=O)c1nc(-c2ccc(Cl)c(OC)c2F)nc(N)c1/C=C/Br [Compound 37, 6-Amino-5-((E)-2-bromovinyl)-2-(4-chloro-2-fluoro-3-methoxyphenyl)pyrimidine-4-carboxylic acid methyl ester]	90%	80%	90%	0%	10%	–
COC(=O)c1nc(-c2ccc(Cl)c(OC)c2F)nc(N)c1/C=C/SC [Compound 38, 6-Amino-2-(4-chloro-2-fluoro-3-methoxyphenyl)-5-((E)-2-methylsulfanylvinyl)pyrimidine-4-carboxylic acid methyl ester]	100%	90%	100%	60%	0%	–
COC(=O)c1nc(-c2ccc(Cl)c(OC)c2F)nc(N)c1C(C)F (stereo not drawn) [Compound 39, 6-Amino-2-(4-chloro-2-fluoro-3-methoxyphenyl)-5-(1-fluoroethyl)pyrimidine-4-carboxylic acid methyl ester]	–	–	–	–	–	pest or weed control at 140 g/ha [1]: 60%; pest or weed control at 140 g/ha [2]: 80%; pest or weed control at 140 g/ha [3]: 85%; pest or weed control at 140 g/ha [4]: 30%; plant injury at 140 g/ha (rice (Oryza sativa)): 0%
C=Cc1c(N)nc(-c2ccc(Cl)c(OC(F)F)c2F)nc1C(=O)O [Compound 50, 6-Amino-2-(4-chloro-3-difluoromethoxy-2-fluorophenyl)-5-vinylpyrimidine-4-carboxylic acid]	100%	95%	100%	100%	45%	–
C=Cc1c(N)nc(-c2ccc(Cl)c(N(C)C)c2F)nc1C(=O)O [Compound 51, 6-Amino-2-(4-chloro-3-dimethylamino-2-fluorophenyl)-5-vinylpyrimidine-4-carboxylic acid]	–	–	–	–	–	pest or weed control at 140 g/ha [1]: 100%; pest or weed control at 140 g/ha [2]: 100%; pest or weed control at 140 g/ha [3]: 90%; pest or weed control at 140 g/ha [4]: 95%; plant injury at 140 g/ha (rice (Oryza sativa)): 60%
C=C(F)c1c(N)nc(-c2ccc(Cl)c(OC)c2F)nc1C(=O)O [Compound 52, 6-Amino-2-(4-chloro-2-fluoro-3-methoxyphenyl)-5-(1-fluorovinyl)pyrimidine-4-carboxylic acid]	–	–	–	–	–	pest or weed control at 140 g/ha [1]: 95%; pest or weed control at 140 g/ha [2]: 95%; pest or weed control at 140 g/ha [3]: 100%; pest or weed control at 140 g/ha [4]: 90%; plant injury at 140 g/ha (rice (Oryza sativa)): 65%
CCc1c(N)nc(-c2ccc(Cl)c(OC)c2F)nc1C(=O)O [Compound 54, 6-Amino-2-(4-chloro-2-fluoro-3-methoxyphenyl)-5-ethylpyrimidine-4-carboxylic acid]	100%	90%	100%	90%	0%	–
C#Cc1c(N)nc(-c2ccc(Cl)c(OC)c2F)nc1C(=O)O [Compound 56, 6-Amino-2-(4-chloro-2-fluoro-3-methoxyphenyl)-5-ethynylpyrimidine-4-carboxylic acid]	–	–	–	–	–	pest or weed control at 140 g/ha [1]: 95%; pest or weed control at 140 g/ha [2]: 80%; pest or weed control at 140 g/ha [3]: 90%; pest or weed control at 140 g/ha [4]: 75%; plant injury at 140 g/ha (rice (Oryza sativa)): 0%
COc1c(Cl)ccc(-c2cc(N)c(C)c(C(=O)O)n2)c1F [Compound 58, 4-Amino-6-(4-chloro-2-fluoro-3-methoxyphenyl)-3-methylpyridine-2-carboxylic acid]	50%	90%	90%	50%	0%	–
C=Cc1c(N)nc(-c2ccc(Cl)c(OC)c2F)nc1C(=O)O [Compound 63, triethylamine salt of 6-amino-2-(4-chloro-2-fluoro-3-methoxyphenyl)-5-vinylpyrimidine-4-carboxylic acid]	–	–	–	–	–	Post-emergent Weed Control CHEAL ([1]; 70 g ai/ha): 100%; Post-emergent Weed Control ABUTH ([2]; 70 g ai/ha): 95%; Post-emergent Weed Control EPHHL ([3]; 70 g ai/ha): 100%; Post-emergent Weed Control ECHCG ([4]; 70 g ai/ha): 90%; Post-emergent Weed Control ORYSA (rice (Oryza sativa); 70 g ai/ha): 75%
